Experimental data from ChEMBL document CHEMBL5512677, “Site-Specific Antimicrobial Activity of a Dual-Responsive Ciprofloxacin Prodrug” (J Med Chem, 2024).
≈ marks a conversion by molar mass, not a printed value. Calls of active or inactive are those of the source. The calls are words filed in the database; no cut-off is given here.

How the values were obtained:
Escherichia coli [1] = assay: Antibacterial activity against Escherichia coli E38 assessed as reduction in bacterial survival rate pre-triggered with nitroreductase and NaSH for 1 hr followed by bacterial infection and measured after 16 hrs by spectrometer; assay type: functional, organism-based; conditions: time 17.0 hrs
Escherichia coli [2] = assay: Antibacterial activity against Escherichia coli E38 assessed as reduction in bacterial survival rate pre-triggered with nitroreductase for 1 hr followed by bacterial infection and measured after 16 hrs by spectrometer; assay type: functional, organism-based; conditions: time 17.0 hrs
[3] = Prodrug activation in phosphate buffer saline assessed as Escherichia coli nitroreductase mediated ciprofloxacin metabolite formation measured upto 60 mins in presence of NADH by HPLC analysis; assay type: ADME; conditions: isolated protein, 1 h
Escherichia coli [4] = assay: Antibacterial activity against Escherichia coli E38 assessed as reduction in bacterial growth pre-triggered with nitroreductase for 1 hr followed by bacterial infection and measured after 16 hrs by spectrometer; assay type: functional; conditions: time 17 hrs
Escherichia coli [5] = assay: Antibacterial activity against Escherichia coli E38 assessed as reduction in bacterial growth by measuring minimum inhibitory concentration incubated for 16 to 20 hrs by serial dilution method; assay type: functional; conditions: time 16-20 hrs
Escherichia coli [6] = assay: Antibacterial activity against Escherichia coli E38 assessed as reduction in bacterial survival rate pre-triggered with NaSH for 1 hr followed by bacterial infection and measured after 16 hrs by spectrometer; assay type: functional, organism-based; conditions: time 17.0 hrs
Escherichia coli [7] = assay: Antibacterial activity against Escherichia coli E38 assessed as reduction in bacterial growth pre-triggered with nitroreductase and H2S for 1 hr followed by bacterial infection and measured after 16 hrs by spectrometer; assay type: functional; conditions: time 17 hrs
Escherichia coli [8] = assay: Antibacterial activity against Escherichia coli E38 assessed as reduction in bacterial growth by measuring minimum bactericidal concentration incubated for 16 to 20 hrs by serial dilution method; assay type: functional; conditions: time 16-20 hrs
Escherichia coli [9] = assay: Antibacterial activity against Escherichia coli HB101 assessed as reduction in bacterial growth by measuring minimum inhibitory concentration incubated for 16 to 20 hrs by serial dilution method; assay type: functional; conditions: time 16-20 hrs
Escherichia coli [10] = assay: Antibacterial activity against Escherichia coli E38 infected in female Swiss Webster mouse skin abscess model assessed as reduction in bacterial load at 20 mg/kg, sc measured after 3 days; assay type: functional, organism-based; conditions: time 3.0 day
Escherichia coli [11] = assay: Antibacterial activity against Escherichia coli HB101 assessed as reduction in bacterial growth by measuring minimum bactericidal concentration incubated for 16 to 20 hrs by serial dilution method; assay type: functional; conditions: time 16-20 hrs
Escherichia coli [12] = assay: Antibacterial activity against Escherichia coli E38 assessed as reduction in bacterial growth pre-triggered with H2S for 1 hr followed by bacterial infection and measured after 16 hrs by spectrometer; assay type: functional; conditions: time 17 hrs
Escherichia coli [13] = assay: Antibacterial activity against Escherichia coli E38 harboring high NTR expression and H2S assessed as reduction in bacterial survival incubated for 16 hrs by spectrometric analysis; assay type: functional, organism-based
Staphylococcus aureus [14] = assay: Antibacterial activity against Staphylococcus aureus BB255 assessed as reduction in bacterial growth by measuring minimum bactericidal concentration incubated for 16 to 20 hrs by serial dilution method; assay type: functional; conditions: time 16-20 hrs
Staphylococcus aureus [15] = assay: Antibacterial activity against Staphylococcus aureus BB255 assessed as reduction in bacterial growth by measuring minimum inhibitory concentration incubated for 16 to 20 hrs by serial dilution method; assay type: functional; conditions: time 16-20 hrs
[16] = Prodrug activation in phosphate buffer saline assessed as Escherichia coli nitroreductase mediated ciprofloxacin metabolite formation measured after 60 mins in presence of NADH by HPLC analysis; assay type: ADME; conditions: isolated protein, 1 h
Escherichia coli [17] = assay: Antibacterial activity against Escherichia coli E38 infected in female Swiss Webster mouse skin abscess model assessed as log reduction in bacterial load at 20 mg/kg, sc measured after 3 days relative to control; assay type: functional; conditions: time 3 day
[18] = Retention time of the compound by HPLC analysis; assay type: physicochemical
[19] = Prodrug activation in phosphate buffer saline assessed as Escherichia coli nitroreductase mediated intermediate formation measured after 60 mins in presence of NADH and 10 ug/ml of NTR by HPLC analysis; conditions: isolated protein, 1 h
[20] = Prodrug activation in phosphate buffer saline assessed as Escherichia coli nitroreductase mediated ciprofloxacin metabolite formation measured after 5 mins in presence of NADH by HPLC analysis; assay type: ADME; conditions: isolated protein
Escherichia coli [21] = assay: Antibacterial activity against Escherichia coli E38 assessed as reduction in bacterial survival rate by measuring fold reduction in MIC pre-triggered with nitroreductase for 1 hr followed by bacterial infection and measured after 16 hrs by spectrometer; assay type: functional; conditions: time 17 hrs
Escherichia coli [22] = assay: Antibacterial activity against Escherichia coli HB101 at 0.5 to 2 times MIC measured after 30 days by broth microdilution method; assay type: functional, organism-based; conditions: time 30.0 day
[23] = Prodrug activation in phosphate buffer saline assessed as Escherichia coli nitroreductase mediated ciprofloxacin metabolite formation by measuring retention time measured after 180 mins in presence of NADH by HPLC analysis; assay type: ADME; conditions: isolated protein, 3 h
[24] = Prodrug activation in phosphate buffer saline assessed as Escherichia coli nitroreductase mediated ciprofloxacin metabolite formation measured after 120 mins in presence of NADH by HPLC analysis; assay type: ADME; conditions: isolated protein, 2 h
Escherichia coli [25] = assay: Antibacterial activity against Escherichia coli E38 assessed as reduction in bacterial survival rate by measuring fold reduction in MIC pre-triggered with H2S for 1 hr followed by bacterial infection and measured after 16 hrs by spectrometer; assay type: functional; conditions: time 17 hrs
Escherichia coli [26] = assay: Antibacterial activity against Escherichia coli HB101 at 0.5 to 2 times MIC measured after 27 days by broth microdilution method; assay type: functional, organism-based; conditions: time 27.0 day

SMILES	Activity (Escherichia coli [1])	Activity (Escherichia coli [2])	Drug metabolism [3]	MIC (Escherichia coli [4]) [µg/mL]	MIC (Escherichia coli [5]) [µg/mL]	Activity (Escherichia coli [6])	MIC (Escherichia coli [7]) [µg/mL]	MBC (Escherichia coli [8]) [µg/mL]	MIC (Escherichia coli [9]) [µg/mL]	MBC (Escherichia coli [11]) [µg/mL]	MIC (Escherichia coli [12]) [µg/mL]	Activity (Escherichia coli [13])	MBC (Staphylococcus aureus [14]) [µg/mL]	MIC (Staphylococcus aureus [15]) [µg/mL]	log(activity) (Escherichia coli [17])	Retention_time [18] [min]	Activity (Escherichia coli [22])	further results
C[C@H](NC(=O)c1cn(C2CC2)c2cc(N3CCNCC3)c(F)cc2c1=O)c1ccc([N+](=O)[O-])cc1	inactive	inactive	Metabolite_Notdetected	4 (≈ 8.34 µM)	4 (≈ 8.34 µM)	inactive	4 (≈ 8.34 µM)	4 (≈ 8.34 µM)	1 (≈ 2.09 µM)	1 (≈ 2.09 µM)	4 (≈ 8.34 µM)	inactive						Activity (Escherichia coli [10]): Active
O=C(O)c1cn(C2CC2)c2cc(N3CCNCC3)c(F)cc2c1=O [CIPROFLOXACIN]		Active						0.015 (≈ 0.0453 µM)		0.004 (≈ 0.0121 µM)			0.5 (≈ 1.51 µM)	0.25 (≈ 0.754 µM)				
O=C(OCc1ccc([N+](=O)[O-])cc1)c1cn(C2CC2)c2cc(N3CCNCC3)c(F)cc2c1=O		Active	Metabolite_Detected	0.063 (≈ 0.135 µM)	1 (≈ 2.14 µM)			2 (≈ 4.29 µM)	0.5 (≈ 1.07 µM)	1 (≈ 2.14 µM)		inactive	> 128	16 (≈ 34.3 µM)	2	4.7	Active	Drug metabolism [16]: Metabolite_Notdetected; Drug metabolism [19]: Metabolite_Notdetected; Drug metabolism [20]: Metabolite_Detected; fold change (FC) (Escherichia coli [21]): 16
[N-]=[N+]=Nc1ccc(COC(=O)N2CCN(c3cc4c(cc3F)c(=O)c(C(=O)OCc3ccc([N+](=O)[O-])cc3)cn4C3CC3)CC2)cc1	Active	inactive		> 16	> 16		0.25 (≈ 0.39 µM)	> 128	32 (≈ 49.9 µM)	32 (≈ 49.9 µM)	2 (≈ 3.12 µM)	inactive	> 128	> 128	2	15.2	Active	Retention_time [23]: 2.2 min; Drug metabolism [24]: Metabolite_Detected
[N-]=[N+]=Nc1ccc(COC(=O)N2CCN(c3cc4c(cc3F)c(=O)c(C(=O)O)cn4C3CC3)CC2)cc1					1 (≈ 1.97 µM)	Active		2 (≈ 3.95 µM)	0.5 (≈ 0.987 µM)	0.5 (≈ 0.987 µM)	0.063 (≈ 0.124 µM)	inactive	> 128	4 (≈ 7.9 µM)	2	12.4		fold change (FC) (Escherichia coli [25]): 16; Activity (Escherichia coli [26]): inactive
